pEC50, pIC50: −log10 of the molar value.
Experiments:
OGG1 = OGG1 (Homo sapiens (Human), UniProt O15527); experiment: In vitro OGG1 activity assay; assay type: biochemical; conditions: 800 pM OGG1 enzyme, 2 nM human APEX1, 10 nM 8-oxoA:C substrate
How it was run: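 Fluorescence-release assay on a duplex oligonucleotide carrying an OGG1 substrate base beside a fluorophore, quenched from the complementary strand. Excess APEX1 cleaves the abasic site left by base excision, melting the duplex and unquenching the fluorophore. Compounds in DMSO were dispensed before enzyme and substrate, and fluorescein signal was read.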

MLE12 cells = experiment: Cell viability assay in MLE12 cells (resazurin); assay type: cell-based, mouse; conditions: Mus musculus, MLE12, 24 h, TNF-α 20 ng/ml, resazurin added after 24 hours culture
Description: (§1) Stock solutions (10 mM in DMSO) of compounds were dispensed in V-bottom 384-well plates and the following dilutions were prepared: 10 mM and 0.05 mM. The dilutions were transferred to the source plate. Duplicate 6 points dose-response curves of compounds were nano-dispensed in cell plates (CCL2 assay) and in parallel, 11 points DR curves in duplicates were nano-dispensed for the viability assay. The plates were heat sealed and kept at RT until use.
(§2) MLE12 cells in flasks were washed once with PBS, detached with Trypsin/EDTA, resuspended in fresh medium and counted. Cells were diluted to 3×10^5 cells/ml and seeded with Multidrop Combi in cell plates pre-dispensed with compounds, 25 μl/well (7500 cells/well). The plates were placed, one by one, in a CO2-incubator at 37° C. for 1 hour after which 25 μl/well of TNF-α (final concentration 20 ng/ml) were added. The plates were transferred back to the CO2-incubator placed in a plastic box with wet tissue in the bottom, to avoid evaporation, for 30 hours.
After 24 hours culture, resazurin reagent (stock 1 mg/ml in PBS) diluted 1:17 in PBS was added with Multidrop Combi, 10 μl/well, and plates were incubated for 6 hours. Plates were read in Sense plate reader with resorufin protocol (ex544 nm/em595 nm). The results were imported to an excel template where the EC50 values were calculated using XLfit.

CCL2 = experiment: Mouse CCL2 assay in MLE12 cells; assay type: cell-based; conditions: Mus musculus, MLE12, 30 h, MLE12 cells; TNF-α 20 ng/ml; supernatant after 30 hours; HTRF; read-out: CCL2 (EC50)
Source text: Cisbio mouse CCL2 assay is intended for the quantitative measurement of CCL2 in supernatant using HTRF® technology. The assay is compatible with mouse samples, and is highly specific for CCL2. CCL2 is detected in a sandwich assay format using 2 different specific antibodies, one labeled with Cryptate (donor) and the second with d2 (acceptor). The detection principle is based on HTRF® technology. When the labelled antibodies bind to the same antigen, the excitation of the donor with a light source (laser or flash lamp) triggers a Fluorescence Resonance Energy Transfer (FRET) towards the acceptor, which in turn fluoresces at a specific wavelength (665 nm). The two antibodies bind to the CCL2 present in the sample, thereby generating FRET. Signal intensity is proportional to the number of antigen-antibody complexes formed and therefore to the CCL2 concentration. • Materials: • Cells: MLE12 (Mouse Lung Epithelial cells, SV40 transformed) • Medium: DMEM/F12 (Gibco #11330057), FBS 5% (Gibco #10500064), Pen/Strep 50 U/50 μg/ml (Gibco #15070063) • Cell plates: 384-well, black/clear, TC-treated (Corning #3764) • Source plate: Labcyte LDV 384 (Labcyte #LP-0200) • Compound dilution plate: V-bottom 384-well PP plate (Greiner #781280) • Compounds: 10 mM stocks in DMSO • HTRF plates: 384-well, white, half area, non-binding (Costar #3824) • Mouse CCL2 kit: Cisbio 62MCCL2PEH • Other reagents: Trypsin/EDTA 10× (Gibco #15400054), PBS (Gibco #14190169), Resazurin (Sigma-Aldrich #199303), 1 mg/ml in PBS, TNF-α 200 μg/ml in PBS (Peprotech #300-01A) • Instruments: • Echo liquid handler (Labcyte) • Multidrop Combi (Thermo Scientific) • Sense plate reader (Hidex) Compound Handling:
as §1, §2
After 30 hours incubation, the plates were spun down 5 minutes at 400 g, and 16 μl/well of the supernatants were transferred to the assay plate. A mCCL2 standard curve was prepared according to the kit protocol and 16 μl/well of the standards were also added to the assay plate.
The anti-CCL2 antibody mix was prepared according to the kit protocol, and 4 μl/well were added to the assay plate. The plate was sealed and incubated over night at RT. After incubation the plate was read in Sense plate reader with Time-resolved FRET protocol (Ex330 nm/Em 620 and 665 nm). After data reduction, the delta ratios were imported to an excel template where the IC50 values were calculated.

Sequence of OGG1 (O15527 whole entry): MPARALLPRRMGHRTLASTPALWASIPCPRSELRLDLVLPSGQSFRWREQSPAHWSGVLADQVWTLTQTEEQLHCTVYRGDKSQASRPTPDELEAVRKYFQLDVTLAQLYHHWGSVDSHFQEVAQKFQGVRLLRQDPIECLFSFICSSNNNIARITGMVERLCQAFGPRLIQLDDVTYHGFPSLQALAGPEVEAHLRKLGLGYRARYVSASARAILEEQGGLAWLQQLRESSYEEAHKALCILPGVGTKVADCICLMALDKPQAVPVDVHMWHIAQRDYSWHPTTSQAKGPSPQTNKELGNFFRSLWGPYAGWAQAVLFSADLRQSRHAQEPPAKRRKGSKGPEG

Row | Compound | pIC50 (OGG1) | pEC50 (CCL2) | pIC50 (MLE12 cells)
1 | O=c1[nH]c2c(Br)cccc2n1[C@H]1CC[C@@H](C(=O)Nc2ccccc2)CC1 [Example 127, (Cis)-4-(4-bromo-2-oxo-2,3-dihydro-1H-1,3-benzodiazol-1-yl)-N-phenylcyclohexane-1-carboxamide] | 5.91 | 4.54 | 4.79
2 | COc1ccc(NC(=O)[C@H]2CC[C@@H](n3c(=O)[nH]c4c(Br)cccc43)CC2)cc1C(F)(F)F [Example 129, (Cis)-4-(4-bromo-2-oxo-2,3-dihydro-1H-1,3-benzodiazol-1-yl)-N-[4-methoxy-3-(trifluoromethyl)phenyl]cyclohexane-1-carboxamide] | 6.94 | 4.67 | 5.02
3 | O=c1[nH]c2c(Br)cccc2n1[C@H]1CC[C@@H](C(=O)Nc2ccc(Cl)cc2Cl)CC1 [Example 131, (Cis)-4-(4-bromo-2-oxo-2,3-dihydro-1H-1,3-benzodiazol-1-yl)-N-(2,4-dichlorophenyl)cyclohexane-1-carboxamide] | 6.17 | 4.41 | 4.76
4 | O=c1[nH]c2c(Br)cccc2n1[C@H]1CC[C@@H](C(=O)Nc2ccc3cc[nH]c3c2)CC1 [Example 135, (Cis)-4-(4-bromo-2-oxo-2,3-dihydro-1H-1,3-benzodiazol-1-yl)-N-(1H-indol-6-yl)cyclohexane-1-carboxamide] | 7.03 | 4.63 | 5.05
5 | O=c1[nH]c2c(Br)cccc2n1[C@H]1CC[C@@H](C(=O)Nc2ccc(F)cc2)CC1 [Example 136, (Cis)-4-(4-bromo-2-oxo-2,3-dihydro-1H-1,3-benzodiazol-1-yl)-N-(4-fluorophenyl)cyclohexane-1-carboxamide] | 6.30 | 4.62 | 5.05
6 | Cc1ccc(NC(=O)[C@H]2CC[C@@H](n3c(=O)[nH]c4c(Br)cccc43)CC2)cc1 [Example 139, (Cis)-4-(4-bromo-2-oxo-2,3-dihydro-1H-1,3-benzodiazol-1-yl)-N-(4-methylphenyl)cyclohexane-1-carboxamide] | 7.24 | 4.50 | 5.00
7 | COc1ccc(NC(=O)[C@H]2CC[C@@H](n3c(=O)[nH]c4c(Br)cccc43)CC2)cc1 [Example 140, (Cis)-4-(4-bromo-2-oxo-2,3-dihydro-1H-1,3-benzodiazol-1-yl)-N-(4-methoxyphenyl)cyclohexane-1-carboxamide] | 7.60 | 4.46 | 4.75
8 | Cc1cc(NC(=O)[C@H]2CC[C@@H](n3c(=O)[nH]c4c(Br)cccc43)CC2)ccc1F [Example 142, (Cis)-4-(4-bromo-2-oxo-2,3-dihydro-1H-1,3-benzodiazol-1-yl)-N-(4-fluoro-3-methylphenyl)cyclohexane-1-carboxamide] | 6.30 | 4.80 | 5.10
9 | COc1cc(NC(=O)[C@H]2CC[C@@H](n3c(=O)[nH]c4c(Cl)cccc43)CC2)ccc1C [Example 146, (Cis)-4-(4-chloro-2-oxo-2,3-dihydro-1H-1,3-benzodiazol-1-yl)-N-(3-methoxy-4-methylphenyl)cyclohexane-1-carboxamide] | 7.57 | 4.53 | 5.01
10 | COc1ccc(NC(=O)[C@H]2CC[C@@H](n3c(=O)[nH]c4c(Cl)cccc43)CC2)cc1 [Example 147, (Cis)-4-(4-chloro-2-oxo-2,3-dihydro-1H-1,3-benzodiazol-1-yl)-N-(4-methoxyphenyl)cyclohexane-1-carboxamide] | 7.44 | 4.49 | 4.75
11 | O=c1[nH]c2c(Cl)cccc2n1[C@H]1CC[C@@H](C(=O)Nc2ccc3cc[nH]c3c2)CC1 [Example 148, (Cis)-4-(4-chloro-2-oxo-2,3-dihydro-1H-1,3-benzodiazol-1-yl)-N-(1H-indol-6-yl)cyclohexane-1-carboxamide] | 7.01 | 4.50 | 4.80
12 | Cc1ccc(NC(=O)[C@H]2CC[C@@H](n3c(=O)[nH]c4c(Cl)cccc43)CC2)cc1 [Example 149, (Cis)-4-(4-chloro-2-oxo-2,3-dihydro-1H-1,3-benzodiazol-1-yl)-N-(4-methylphenyl)cyclohexane-1-carboxamide] | 7.07 | 4.47 | 4.78

Continued, in another order:

Row | pIC50 (OGG1) | pEC50 (CCL2) | Compound | pIC50 (MLE12 cells)
13 | 6.97 | 4.73 | O=c1[nH]c2c(Cl)cccc2n1[C@H]1CC[C@@H](C(=O)Nc2ccc(Cl)cc2)CC1 [Example 150, (Cis)-4-(4-chloro-2-oxo-2,3-dihydro-1H-1,3-benzodiazol-1-yl)-N-(4-chlorophenyl)cyclohexane-1-carboxamide] | 5.12
14 | 6.28 | 5.28 | COC(=O)c1cc(NC(=O)[C@H]2CC[C@@H](n3c(=O)[nH]c4c(Br)cccc43)CC2)ccc1OC [Example 151, Methyl 2-methoxy-5-[(cis)-4-(4-bromo-2-oxo-2,3-dihydro-1H-1,3-benzodiazol-1-yl)cyclohexaneamido]benzoate] | 4.77
15 | 7.13 | 4.81 | Cc1cc(NC(=O)[C@H]2CC[C@@H](n3c(=O)[nH]c4c(Br)cccc43)CC2)ccc1Cl [Example 152, (Cis)-4-(4-bromo-2-oxo-2,3-dihydro-1H-1,3-benzodiazol-1-yl)-N-(4-chloro-3-methylphenyl)cyclohexane-1-carboxamide] | 5.21
16 | 6.42 | 4.36 | Cc1ccc(NC(=O)[C@H]2CC[C@@H](n3c(=O)[nH]c4c(Br)cccc43)CC2)c(F)c1 [Example 153, (Cis)-4-(4-bromo-2-oxo-2,3-dihydro-1H-1,3-benzodiazol-1-yl)-N-(2-fluoro-4-methylphenyl)cyclohexane-1-carboxamide] | 4.61
17 | 6.42 | 4.28 | COc1ccc(NC(=O)[C@H]2CC[C@@H](n3c(=O)[nH]c4c(Br)cccc43)CC2)c(F)c1F [Example 154, (Cis)-4-(4-bromo-2-oxo-2,3-dihydro-1H-1,3-benzodiazol-1-yl)-N-(2,3-difluoro-4-methoxyphenyl)cyclohexane-1-carboxamide] | 4.79
18 | 7.09 | 4.59 | COc1c(F)cc(NC(=O)[C@H]2CC[C@@H](n3c(=O)[nH]c4c(Br)cccc43)CC2)cc1F [Example 160, (Cis)-4-(4-bromo-2-oxo-2,3-dihydro-1H-1,3-benzodiazol-1-yl)-N-(3,5-difluoro-4-methoxyphenyl)cyclohexane-1-carboxamide] | 5.09
19 | 7.37 | 4.47 | COc1ccc(NC(=O)[C@H]2CC[C@@H](n3c(=O)[nH]c4c(Br)cccc43)CC2)cc1F [Example 164, (Cis)-4-(4-bromo-2-oxo-2,3-dihydro-1H-1,3-benzodiazol-1-yl)-N-(3-fluoro-4-methoxyphenyl)cyclohexane-1-carboxamide] | 4.89
20 | 7.39 | 4.37 | O=c1[nH]c2c(Br)cccc2n1[C@H]1CC[C@@H](C(=O)Nc2ccc3c(c2)OCO3)CC1 [Example 166, (Cis)-N-(2H-1,3-benzodioxol-5-yl)-4-(4-bromo-2-oxo-2,3-dihydro-1H-1,3-benzodiazol-1-yl)cyclohexane-1-carboxamide] | 4.79

From patent US11970474B2, “Substituted benzodiazoles and use thereof in therapy” (THOMAS HELLEDAYS STIFTELSE FÖR MEDICINSK FORSKNING, priority 2018, dated 2024)
